Assay results: paper PMC12040169 (PLOS Biology, 2025)

Assay: in vitro
Conditions: human, hela cells, % viability

Row | Structure (SMILES) | viability at 28.5 h, 10 µM [%]
1 | CC(=O)Nc1cnn(-c2ccc(C(=O)N3CCCCC3c3nc4ccccc4[nH]3)cc2)c1 (centres unmarked) [CBK291109] | 83.3
2 | CN(C)S(=O)(=O)N1CCN(C(=O)N(c2ccccc2)c2ccccc2)CC1 [CBK267466] | 96.7
3 | CCOc1ccc(OC(=O)c2cccc(C)c2)cc1 [CBK083575] | 101
4 | C/C(=N\c1ccccc1C(F)(F)F)c1ccncc1 [CBK021262] | 86.6
5 | c1ccc(Oc2cccc(OCCCN3CCCCC3)c2)cc1 [CBK261781] | 95.2
6 | CSc1ncc(Cl)c(C(=O)Nc2sc3c(c2C(=O)NCC2CCCO2)CCC3)n1 (centres unmarked) [CBK268959] | 95
7 | C=CCNC(=O)CCn1c(C(C)C)cc2cccnc21 [CBK283289] | 105
8 | CC(=O)Nc1ccc(NC(=O)CC2SCCNC2=O)cc1 (centres unmarked) [CBK269921] | 89.6
9 | O=C(O)COc1ccccc1/C=N/n1c(S)nnc1-c1cccnc1 [CBK265337] | 89.9
10 | CCCn1nc(C)cc1NC(=O)c1ncoc1-c1ccc(F)cc1 [CBK282361] | 88.7
11 | O=C(Nc1cccc(-c2noc(CCc3ccccc3)n2)c1)c1cccs1 [CBK270225] | 87.4
12 | CCCC(=O)Nc1ccc(OCCOC(C)(C)C)c(C(C)=O)c1 [CBK305691] | 79.8
13 | CCSc1nc(=O)c2c(n1C)NC(=O)CC2c1ccccc1 (centres unmarked) [CBK307541] | 107
14 | Cc1ccc(C(Cn2cncc2-c2cn(C)nc2C)N(C)C)cc1 (centres unmarked) [CBK281896] | 98.7
15 | COc1ccccc1NS(=O)(=O)c1ccc2c(c1)C1C=CCC1C(c1ccc(C(=O)O)cc1)N2 (centres unmarked) [CBK268903] | 101
16 | Cc1ccc(S(=O)(=O)NC(Cc2ccccc2)C(=O)O)cc1 (centres unmarked) [CBK217645] | 102
17 | O=C(NCc1ccc2c(c1)OCO2)c1ccc(Oc2ccccc2)cc1 [CBK293982] | 91.4
18 | CCC(NC(=O)C(C)n1cc(Cl)cn1)c1ccc(OC)cc1 (centres unmarked) [CBK282029] | 95.3
19 | COC(=O)[C@H]1CN(C(=O)C2CC(=O)N(C)C2)C[C@@H]1c1ccccc1F (some centres unmarked) [CBK285470] | 94.7
20 | S=C(NCC1CCN(C(=S)Nc2cccc3ccccc23)CC1)Nc1cccc2ccccc12 [CBK016070] | 107
21 | Cc1ccc(CNC(=O)N2CCC3(CC2)OCCc2c3[nH]c3ccccc23)cc1 [CBK047121] | 93.3
22 | O=C(C1CCCC1)N1CCC(n2nc(-c3cccs3)oc2=O)CC1 [CBK282424] | 87.5

Row | Structure (SMILES) | viability at 28.5 h, 10 µM [%]
23 | Cc1nc2c(OCCOc3ccccc3)cccn2c1N(C)CC1CC1 [CBK147272] | 96.8
24 | O=C(CN1C(=O)N2CCCN=C2c2ccccc21)N1CCCCCC1 [CBK284399] | 96.4
25 | O=c1sn(-c2ccccc2C(F)(F)F)c(=O)n1CC1CC1 [CBK113675] | 82.8
26 | c1ccc(-c2nn3c(CN4CCOCC4)nnc3c3ccccc23)cc1 [CBK269779] | 89
27 | Cc1cc(S(=O)(=O)NCC(=O)OC(C)C)c(C)cc1Cl [CBK044196] | 101
28 | Cc1nn(-c2ccccc2)c2[nH]c(=O)c(CNC(C)C)cc12 [CBK282899] | 93.1
29 | O=C(CSCc1cccc(Br)c1)Nc1cccc2cccnc12 [CBK261204] | 101
30 | Cc1ccc(-c2nnc(CNC(=O)c3ccccc3-c3ccccc3)o2)s1 [CBK286298] | 89.2
31 | O=C(c1nccs1)C1CCN(C(=O)C2(c3ccccc3)CC2)CC1 [CBK284206] | 97.4
32 | Cc1ccc(Nc2cc(-c3ccsc3)ncn2)cc1NS(C)(=O)=O [CBK091149] | 97.9
33 | NC(=O)C1(Cc2cccc(-c3cccs3)c2)CCN(C(=O)COc2ccccc2)CC1 [CBK285741] | 103
34 | Cc1onc(-c2ccccc2)c1C(=O)Nc1cccc(S(=O)(=O)N2CCOCC2)c1 [CBK268159] | 101
35 | CC(C)(C)OC(=O)N1CCN(S(=O)(=O)c2ccc(Br)cc2)CC1 [CBK143623] | 91.8
36 | CC1CCc2onc(C(=O)NCc3nccn3C)c2C1 (centres unmarked) [CBK281514] | 68.9
37 | CC(=O)Nc1c(Nc2ccccc2)c2ccccc2oc1=O [CBK261756] | 88.1
38 | O=C(Nc1ccc(OC(F)(F)F)cc1)c1cnc(-c2ccc(Cl)cc2)c(-c2ccc(O)cc2)c1 [CBK037485] | 109
39 | Cc1ccc(S(=O)(=O)N2CCC(N3CCN(CCO)CC3)CC2)cc1 [CBK264656G] | 96.8
40 | Cc1ccc(OCC(=O)N2CCN(S(=O)(=O)c3ccc([N+](=O)[O-])cc3)CC2)cc1 [CBK264267] | 103
41 | O=S(=O)(c1ccccc1)N(CC(O)CN1CCCC1)c1cccc2ccccc12 (centres unmarked) [CBK264464C] | 93.9
42 | Cn1ccnc1C(NC(=O)N1CCCCC1)c1ccc(F)c(F)c1 (centres unmarked) [CBK283832] | 107
43 | O=C(NC[C@H]1CCCN(C(=O)c2cccs2)C1)c1ccco1 [CBK284261] | 94.6
44 | CC1(C)CC(=O)C=C(C(=O)NCc2ccc(OC3CCNCC3)cc2)O1 [CBK038948T] | 96.1

Row | Structure (SMILES) | viability at 28.5 h, 10 µM [%]
45 | CCOc1ccccc1-n1c(CCC(=O)O)ccc1-c1cccs1 [CBK264794] | 105
46 | O=C(NC1CC1)c1ccc(-c2cnc3[nH]c(=O)n(CC4CCOCC4)c3n2)cc1 [CBK064890] | 85.2
47 | [O-][N+]1=C2CCc3c(no[n+]3[O-])C2(O)CC1N1CCOCC1 (centres unmarked) [CBK261515] | 112
48 | O=C(O)/C(=N\c1cccc2ccccc12)c1ccccc1 [CBK262224] | 75.7
49 | COc1ccccc1N(CC(O)CN1CCCC1)S(=O)(=O)c1ccccc1 (centres unmarked) [CBK264829] | 114
50 | O=C(NCCN1CCOCC1)c1cc(-c2ccccc2)on1 [CBK267479] | 89.5
51 | O=C(Nc1cccc(Cl)c1)N1CCCC(c2nc(-c3ccccc3)c3ccccn23)C1 (centres unmarked) [CBK047233] | 90.4
52 | O=C(CN1CCN(c2ccccn2)CC1)N1c2ccccc2CCc2ccccc21 [CBK268868G] | 98.4
53 | c1ccc2cc(OCc3ccc(-c4nccnc4-c4nnn[nH]4)cc3)ccc2c1 [CBK050818] | 93.9
54 | Cc1ccc(-c2nnc(C3CCCN(C(=O)C4CC4)C3)o2)s1 (centres unmarked) [CBK285516] | 83.9
55 | Cc1onc(-c2ccccc2Cl)c1C(=O)N(Cc1nc(-c2ccccc2)no1)C(C)C [CBK269289] | 113
56 | O=C1CCC(=O)N1CCOc1nccnc1N1CCN(Cc2ccc(Cl)cc2)CC1 [CBK084290] | 96.1
57 | O=C(Oc1cccc(/C=N/NC(=O)c2ccccn2)c1)c1cccc(Br)c1 [CBK262115] | 90.5
58 | CC(C)(C)OC(=O)N1CCCC(C(=O)NC(C(N)=O)c2ccccc2)C1 (centres unmarked) [CBK305766] | 99.8
59 | O=C(O)CC(C(=O)O)c1ccc(F)cc1 (centres unmarked) [CBK268531] | 87.6
60 | CCCc1cc(=O)[nH]c(N/C(=N/C(=O)c2ccccc2)Nc2ccc3c(c2)OCCO3)n1 [CBK266485] | 99.5
61 | COc1ccc(C(=O)N(C)C2CCN(C)C2)cc1Nc1cncc(-c2cc3ccccc3[nH]2)n1 (centres unmarked) [CBK155260T] | 108
62 | Cc1ccc(S(=O)(=O)Nc2ccc(C(C)C)cc2)cc1C(=O)O [CBK297766] | 84.2
63 | C=CCn1c2cc(C)oc2c2cnn(CC(=O)N(C)C)c(=O)c21 [CBK283326] | 101
64 | CC(=O)Nc1ccc(S(=O)(=O)N2CCN(S(=O)(=O)c3ccc(C)cc3)CC2)cc1 [CBK264276] | 101
65 | O=C(CC(CN1CCN(CCN2CCCC2)CC1)C(=O)O)Nc1ccccc1 (centres unmarked) [CBK286833] | 109
66 | COc1ccc(C(F)(F)F)cc1N [CBK038366] | 89.6

Row | Structure (SMILES) | viability at 28.5 h, 10 µM [%]
67 | O=C(CCc1cc(F)ccc1F)NCCCn1nc2n(c1=O)CCCC2 [CBK305782] | 97.7
68 | COCCNc1nc(-c2cccc3cccnc23)cn2ccnc12 [CBK037314] | 95.3
69 | CN1CCC(=NNC(=O)CSCc2ccccc2Br)CC1 [CBK026542] | 104
70 | CCC(C)(C)c1ccc(S(=O)(=O)N2CCCN(Cc3cn(C)c4ccccc34)CC2)cc1 [CBK062871] | 91.2
71 | Fc1ccc(CCN2CCC(Oc3cncc(OCC4COc5ccccc5O4)n3)C2)cc1 (centres unmarked) [CBK084383] | 99.8
72 | O=C(CN1CCN(Cc2ccc3c(c2)OCO3)CC1)Nc1ccc(Oc2ccccc2)cc1 [CBK265864] | 94
73 | CCN(CC)CCCN1C(=O)CSC1c1ccc2c(c1)OCO2 (centres unmarked) [CBK263482C] | 102
74 | COc1ccc(S(=O)(=O)N(C)CC(=O)O)cc1C [CBK267176] | 108
75 | Cc1ccnc(NCC2CCN(CC(=O)Nc3cc(C)no3)C2)c1 (centres unmarked) [CBK306121] | 91.3
76 | O=C(CSc1nnc(-c2ccc(Cl)cc2Cl)[nH]1)Nc1ccc(F)cc1 [CBK267651] | 96.4
77 | CC(Oc1ccc(Cl)cc1Cl)C(=O)Nc1ccc(O)cc1 (centres unmarked) [CBK264120] | 94.8
78 | CS(=O)(=O)Nc1nnc(C(F)(F)F)s1 [CBK038168] | 97.6
79 | Fc1ccc2[nH]c3c(c2c1)CCNC31CCN(CCOc2ccccc2)C1 (centres unmarked) [CBK085404T] | 98
80 | NNC(=O)C(Oc1ccccc1)Oc1ccccc1 [CBK261210] | 100
81 | Nc1cc(N)nc(SCc2cccnc2)n1 [CBK267459] | 97.5
82 | CC(C)N1CNc2c(c(=O)nc(O)n2Cc2ccccc2)C1 [CBK291139] | 92.5
83 | Cc1cc(COC(=O)Nc2cccnc2)cc(C)n1 [CBK138236] | 83.6
84 | CCCc1[nH]nc(O)c1Cc1cc(C(F)(F)F)ccc1Cl [CBK075032] | 96.9
85 | CN1CCN(C)C(COc2ncccc2C(F)(F)F)C1 (centres unmarked) [CBK113458] | 90.5
86 | O=C(CSc1nc2ccccc2c(=O)n1Cc1ccccc1)c1ccc(Br)cc1 [CBK262700] | 93.4
87 | Cc1cccc(OCC(=O)NC(=S)Nc2ccccc2N2CCCCC2)c1C [CBK266298] | 105

Same assay, conditions: human, hela cells, % viability, bulk resorufin, single well

Row | Structure (SMILES) | viability at 28.5 h, 10 µM [%]
88 | CC(C)C(Nc1c([N+](=O)[O-])cc(C(F)(F)F)cc1[N+](=O)[O-])C(=O)O (centres unmarked) [CBK261041] | 96.4
89 | Cc1ccc(-c2ccc3c(c2)COC2(CCNCC2)O3)c(C)c1 [CBK060881] | 89.7
